In publication PMC10974533, “Cationicity Enhancement on the Hydrophilic Face of Ctriporin Significantly Reduces Its Hemolytic Activity and Improves the Antimicrobial Activity against Antibiotic-Resistant ESKAPE Pathogens” (Toxins, 2024):
Where a SMILES comes first, the peptide text is derived from it.

Experiments:
Type in all cases: cell-based
standard ESKAPE strains = details: broth dilution (CLSI), MHB, 37 °C, 16–20 h; range over all standard strains
Method: The ESKAPE pathogens represent the main threat to public health concerning antimicrobial resistance. Therefore, we first evaluated the antimicrobial activities of Ctriporin and its analogs against the standard ESKAPE strains. The minimum inhibitory concentration (MIC) was chosen as the index for the evaluation of each peptide’s activity. […] Note that the MICs of CM4 and CM7 are 4–32 and 8–32 μg/mL, respectively, indicating the existence of significant bacterial species deviations for the antimicrobial activity of these peptides. In addition, the replacement of specific residues, especially Pro^7, may harm the antimicrobial activities of the peptide.
(§1) The standard strains, including S. aureus ATCC29213 and ATCC25923, E. faecalis ATCC29212, E. coli ATCC25922 and ATCC35218, A. baumannii ATCC19606, K. pneumoniae ATCC700603, and P. aeruginosa ATCC27853, were purchased from the China Center of Type Culture Collection (CCTCC). The clinical strains of the ESKAPE pathogens were isolated from the affiliated hospitals of Hubei University of Medicine. All of them were stored at −80 °C before use. The drug sensitivities of the clinical strains were determined by the Kirby–Bauer test.
(§2) The MICs were determined using the broth dilution method according to the guidelines of the Clinical and Laboratory Standards Institute (CLSI), as described in the previous studies. Briefly, the bacterial cells were incubated in Mueller–Hinton broth (MHB, Oxoid, Basingstoke, UK) at 37 °C and 150 rpm to the mid-growth phase and diluted to achieve a final concentration of 5 × 10^5 colony-forming units per milliliter (CFU/mL). Then, the cells were mixed with each peptide in different concentrations (1, 2, 4, 8, 16, 32, and 64 μg/mL). […] All experiments were repeated at least three times.

[1] = tested on: clinical isolates of CRE and multidrug-resistant (MDR) A. baumannii; details: broth dilution (CLSI), MHB
Method: To further evaluate the antimicrobial potential of CM5 and CM6, the MICs of these two peptides, as well as the parent peptide Ctriporin, were determined against clinical antibiotic-resistant isolates of ESKAPE strains. […] Note that CRE and MDR A. baumannii are listed at the top of the pathogens threatening public health. Compared with the parent peptide Ctriporin, eight to sixteen times improvement in terms of antimicrobial activity was obtained through our peptide design strategy.
as §2

[2] = tested on: human red blood cells (hRBC); assay: Hemolytic activity determination; details: 2% (v/v) hRBC, 37 °C, 1 h
Method: Figure 2 Hemolytic activities of Ctriporin and its analogs against human red blood cells (hRBC). Hemolytic activities of Ctriporin (solid circle), CM1 (open circle), CM2 (open square), CM3 (upward triangle), CM4 (downward triangle), CM5 (half solid circle), CM6 (half solid square), and CM7 (half solid triangle), were measured against 2% (v/v) human red blood cells. The peptide concentrations are 0, 2, 4, 8, 16, 32, 64, 128, 256, and 512 μg/mL. The cells treated with 1% Triton X-100 were treated as 100% hemolysis. All experiments were repeated three times, and the data shown are the average ± standard error.
The hemolytic activities of the peptides were determined against human red blood cells (hRBCs). As described, sodium citrate-anticoagulated hRBCs were washed three times with 0.9% sodium chloride and diluted to a final concentration of 4% (v/v). Then, an equal volume of hRBC solutions was mixed with an equal volume of each peptide in a series of concentrations (0, 2, 4, 8, 16, 32, 64, 128, 256, and 512 μg/mL). After co-incubation at 37 °C for 1 h, the degree of hemolysis of the peptides was determined by detecting the release of hemoglobin from the damaged hRBCs by measuring the optical density at 540 nm (OD540). hRBCs in 0.9% sodium chloride and 1% Triton X-100 were considered 0% and 100% hemolysis, respectively. The results shown are the average ± standard error of data derived from three independent experiments. The percent hemolysis was calculated according to the following equation [53, 54]:Hemolysis (%) = 100 × (Asample − Ablank)/(Apositive − Ablank)

A. baumannii ATCC19606 = assay: MIC, broth dilution, standard strain; details: broth dilution (CLSI), MHB, 5 × 10^5 CFU/mL, 37 °C, 16–20 h, OD630, repeated at least three times
Method: as §1, §2

E. faecium ATCC29212 = assay: MIC, broth dilution, standard strain; details: broth dilution (CLSI), MHB, 5 × 10^5 CFU/mL, 37 °C, 16–20 h, OD630, repeated at least three times
Method: as §1, §2

S. aureus ATCC29213 = assay: MIC, broth dilution, standard strain; details: broth dilution (CLSI), MHB, 5 × 10^5 CFU/mL, 37 °C, 16–20 h, OD630, repeated at least three times
Method: as §1, §2

P. aeruginosa ATCC27853 = assay: MIC, broth dilution, standard strain; details: broth dilution (CLSI), MHB, 5 × 10^5 CFU/mL, 37 °C, 16–20 h, OD630, repeated at least three times
Method: as §1, §2

S. aureus ATCC25923 = assay: MIC, broth dilution, standard strain; details: broth dilution (CLSI), MHB, 5 × 10^5 CFU/mL, 37 °C, 16–20 h, OD630, repeated at least three times
Method: as §1, §2

E. coli ATCC25922 = assay: MIC, broth dilution, standard strain; details: broth dilution (CLSI), MHB, 5 × 10^5 CFU/mL, 37 °C, 16–20 h, OD630, repeated at least three times
Method: as §1, §2

E. coli ATCC35218 = assay: MIC, broth dilution, standard strain; details: broth dilution (CLSI), MHB, 5 × 10^5 CFU/mL, 37 °C, 16–20 h, OD630, repeated at least three times
Method: as §1, §2

K. pneumoniae ATCC700603 = assay: MIC, broth dilution, standard strain; details: broth dilution (CLSI), MHB, 5 × 10^5 CFU/mL, 37 °C, 16–20 h, OD630, repeated at least three times
Method: as §1, §2

S. aureus 891 = assay: MIC, broth dilution, clinical isolate; details: MRSA clinical isolate; broth dilution (CLSI), MHB, 5 × 10^5 CFU/mL, 37 °C, 16–20 h, OD630
Method: as §1, §2

E. faecium 898 = assay: MIC, broth dilution, clinical isolate; details: MDR clinical isolate; broth dilution (CLSI), MHB, 5 × 10^5 CFU/mL, 37 °C, 16–20 h, OD630
Method: as §1, §2

S. capitis 3255 = assay: MIC, broth dilution, clinical isolate; details: MRSC clinical isolate; broth dilution (CLSI), MHB, 5 × 10^5 CFU/mL, 37 °C, 16–20 h, OD630
Method: as §1, §2

S. aureus 9124 = assay: MIC, broth dilution, clinical isolate; details: MRSA clinical isolate; broth dilution (CLSI), MHB, 5 × 10^5 CFU/mL, 37 °C, 16–20 h, OD630
Method: as §1, §2

K. pneumoniae 9126 = assay: MIC, broth dilution, clinical isolate; details: CRE clinical isolate; broth dilution (CLSI), MHB, 5 × 10^5 CFU/mL, 37 °C, 16–20 h, OD630
Method: as §1, §2

P. aeruginosa 9014 = assay: MIC, broth dilution, clinical isolate; details: CRE/MDR clinical isolate; broth dilution (CLSI), MHB, 5 × 10^5 CFU/mL, 37 °C, 16–20 h, OD630
Method: as §1, §2

A. baumannii 19462 = assay: MIC, broth dilution, clinical isolate; details: CRE/MDR clinical isolate; broth dilution (CLSI), MHB, 5 × 10^5 CFU/mL, 37 °C, 16–20 h, OD630
Method: as §1, §2

S. epidermidis 9092 = assay: MIC, broth dilution, clinical isolate; details: MRSE clinical isolate; broth dilution (CLSI), MHB, 5 × 10^5 CFU/mL, 37 °C, 16–20 h, OD630
Method: as §1, §2

E. coli 2687 = assay: MIC, broth dilution, clinical isolate; details: ESBL clinical isolate; broth dilution (CLSI), MHB, 5 × 10^5 CFU/mL, 37 °C, 16–20 h, OD630
Method: as §1, §2

E. coli 2678 = assay: MIC, broth dilution, clinical isolate; details: ESBL clinical isolate; broth dilution (CLSI), MHB, 5 × 10^5 CFU/mL, 37 °C, 16–20 h, OD630
Method: as §1, §2

A. baumannii 19295 = assay: MIC, broth dilution, clinical isolate; details: CRE/MDR clinical isolate; broth dilution (CLSI), MHB, 5 × 10^5 CFU/mL, 37 °C, 16–20 h, OD630
Method: as §1, §2

A. baumannii 19618 = assay: MIC, broth dilution, clinical isolate; details: CRE/MDR clinical isolate; broth dilution (CLSI), MHB, 5 × 10^5 CFU/mL, 37 °C, 16–20 h, OD630
Method: as §1, §2

S. epidermidis 6943 = assay: MIC, broth dilution, clinical isolate; details: MRSE clinical isolate; broth dilution (CLSI), MHB, 5 × 10^5 CFU/mL, 37 °C, 16–20 h, OD630
Method: as §1, §2

**Q.** How did the “MICs against the ESKAPE pathogens (range over the standard strains of Table 2)” value (standard ESKAPE strains) turn out when `CC[C@H](C)[C@H](NC(=O)[C@H](C)NC(=O)[C@H](CCCCN)NC(=O)[C@@H]1CCCN1C(=O)[C@@H](NC(=O)[C@H](CC(C)C)NC(=O)[C@H](CCCCN)NC(=O)[C@H](Cc1c[nH]c2ccccc12)NC(=O)[C@H](CC(C)C)NC(=O)[C@@H](N)Cc1ccccc1)[C@@H](C)CC)C(=O)N[C@@H](CCCCN)C(=O)N[C@@H](CCCCN)C(=O)N[C@H](C(=O)N[C@@H](CCCCN)C(=O)N[C@@H](CCCCN)C(=O)N[C@@H](CC(C)C)C(=O)N[C@H](C(=O)N[C@@H](CCCCN)C(=O)N[C@@H](CCCCN)C(N)=O)[C@@H](C)CC)C(C)C` [CM6] (H-FLWKLIPKAIKKVKKLIKK-NH2) was run?
**A.** 4 to 8 µg/mL

**Q.** And the “MIC values against clinical isolates of CRE and MDR A. baumannii” value [1]?
**A.** 2 µg/mL

**Q.** What about the “curve of hemolysis% vs. peptide concentration (Figure 2)” value ([2]; 0–512 μg/mL peptide, compared in words) of the same compound?
**A.** decreased dramatically compared with Ctriporin

**Q.** And the “Hemolysis% at 256 μg/mL” value ([2]; 256 μg/mL peptide, OD540, 1% Triton X-100 = 100%, average ± standard error of three independent experiments)?
**A.** 8.1 ± 1.9%

**Q.** What about the MICs (A. baumannii ATCC19606) of the same compound?
**A.** 4 µg/mL

**Q.** And the MICs (E. faecium ATCC29212)?
**A.** 8 µg/mL

**Q.** And the MICs (S. aureus ATCC29213)?
**A.** 8 µg/mL

**Q.** What about the MICs (P. aeruginosa ATCC27853) of the same compound?
**A.** 4 µg/mL

**Q.** What about the MICs (S. aureus ATCC25923) of the same compound?
**A.** 8 µg/mL

**Q.** What about the MICs (E. coli ATCC25922) of the same compound?
**A.** 8 µg/mL

**Q.** What about the MICs (E. coli ATCC35218) of the same compound?
**A.** 8 µg/mL

**Q.** What about the MICs (K. pneumoniae ATCC700603) of the same compound?
**A.** 8 µg/mL

**Q.** What about the MICs (S. aureus 891) of the same compound?
**A.** 8 µg/mL

**Q.** What about the MICs (E. faecium 898) of the same compound?
**A.** 4 µg/mL

**Q.** And the MICs (S. capitis 3255)?
**A.** 2 µg/mL

**Q.** What about the MICs (S. aureus 9124) of the same compound?
**A.** 8 µg/mL

**Q.** What about the MICs (K. pneumoniae 9126) of the same compound?
**A.** 16 µg/mL

**Q.** And the MICs (P. aeruginosa 9014)?
**A.** 8 µg/mL

**Q.** What about the MICs (A. baumannii 19462) of the same compound?
**A.** 2 µg/mL

**Q.** What about the MICs (S. epidermidis 9092) of the same compound?
**A.** 4 µg/mL

**Q.** What about the MICs (E. coli 2687) of the same compound?
**A.** 8 µg/mL

**Q.** What about the MICs (E. coli 2678) of the same compound?
**A.** 8 µg/mL

**Q.** What about the MICs (A. baumannii 19295) of the same compound?
**A.** 2 µg/mL

**Q.** What about the MICs (A. baumannii 19618) of the same compound?
**A.** 2 µg/mL

**Q.** What about the MICs (S. epidermidis 6943) of the same compound?
**A.** 4 µg/mL
